The values that follow come from patent publication US10875855B2 (priority 2011, dated 2020).

Like-named read-outs stand apart in the source and are kept apart here. A value given as a limit tells only on which side of the number the result lay.

For assay [1], the system named is influenza A virus (A/PR/8/34). As to the kind of experiment: MDCK cytopathic effect (CPE) cell protection assay, ATP detection. The class given is cell-based. Background: Protection from cytopathic effect is a common read-out in antiviral testing.
For assay [2], the system named is influenza A virus (A/PR/8/34). As to the kind of experiment: microbe, parasite or virus in culture. The format is cell-based. Particulars: for bDNA EC99 (uM), class / bDNA EC99: Table 2.
A further assay deals with influenza virus. As to the kind of experiment: Influenza therapeutic mouse model (in vivo efficacy). Particulars: dosing @ 48 hours post infection, 30 mg/kg BID × 10 days; for Percent Survival / Percent Weight Loss (Day 8): Balb/c mice; for Percent Survival: scored 21 days; for Percent Weight Loss (Day 8): post challenge day 8; for WBP (Penh; Day 6): whole body plethysmography, enhanced pause. Also on record: species or system Balb/c mice.

[3] abbreviates: Influenza A virus, PR/8, MDCK, 72 h, Table 1, MDCK cells, A/PR/8/34, 72 hours, 50% cell protection, mean all, class symbol, read-out: MDCK IC50.
The mark [4] stands for this setting: Influenza A virus, PR/8, MDCK, exemplary data, MDCK cell protection, read-out: IC50.
Where [5] appears, read: Influenza A virus, PR/8, Table 1, mean all, class symbol, read-out: bDNA EC99.
[6] abbreviates: Influenza A virus, PR/8, Table 1, viral RNA 50% of control wells, mean all, class symbol, read-out: bDNA EC50.
[7] abbreviates: Influenza A virus, PR/8, exemplary data, bDNA, read-out: EC50.
Setting [8] is: Table 1, MDCK cells, A/PR/8/34, 72 hours, 50% cell protection, mean all, class symbol, read-out: MDCK IC50.
Where [9] appears, read: Table 1, mean all, class symbol.
The mark [10] stands for this setting: Table 1, viral RNA 50% of control wells, mean all, class symbol, read-out: bDNA EC50.
The mark [11] stands for this setting: Influenza A virus, PR/8, MDCK, Table 2, class symbol in brackets, read-out: MDCK cell IC50 (uM), class.
The mark [12] stands for this setting: Influenza A virus, PR/8, MDCK, Table 2, comparison compounds of WO2005/095400, mean value, read-out: MDCK cell IC50.
Setting [13] is: Influenza A virus, PR/8, Table 2, class symbol in brackets, read-out: bDNA EC50 (uM), class.
[14] abbreviates: Influenza A virus, PR/8, Table 2, comparison compounds of WO2005/095400, mean value, read-out: bDNA EC50.
The mark [15] stands for this setting: comparison compounds of WO2005/095400, mean value.

Usually IC50 stands for the concentration that inhibits the measured activity by half. One may read the EC99 as the point of the concentration-response curve where the effect stands at 99%. In general, EC50 refers to the concentration giving half of the maximal effect. With `CC(C)(C)[C@@H](CC(=O)O)Nc1nc(-c2c[nH]c3ncc(Cl)cc23)ncc1F` [Compound 1, (R)-3-(2-(5-Chloro-1H-pyrrolo[2,3-b]pyridin-3-yl)-5-fluoropyrimidin-4-ylamino)-4,4-dimethylpentanoic acid], the figures for the IC50 in assay [1] (setting [3]) and in assay [1] (setting [4]) were less than 0.3 µM and 0.006 µM, respectively. The EC99 is less than 0.3 µM in assay [2] (setting [5]) and 0.0094 µM in assay [2] (exemplary data, bDNA). Also, the results for the EC50 in assay [2] (setting [6]) and in assay [2] (setting [7]) were less than 0.3 µM and 0.009 µM, respectively. The “Percent Survival” value with influenza virus is given as 100%. Moreover, the “Percent Weight Loss (Day 8)” value in the assay with influenza virus was 26.6%. Further, the “WBP (Penh; Day 6)” value in the assay on influenza virus amounted to 1.88.

`CC(C)(C)[C@@H](CC(=O)O)Nc1nc(-c2c[nH]c3ncc(F)cc23)ncc1F` [Compound 2, (R)-3-((5-fluoro-2-(5-fluoro-1H-pyrrolo[2,3-b]pyridin-3-yl)pyrimidin-4-yl)amino)-4,4-dimethylpentanoic acid]: the IC50 in assay [1] (setting [3]) is less than 0.3 µM; in assay [1] (setting [4]), 0.004 µM. Also, the EC99 was less than 0.3 µM in assay [2] (setting [5]) and 0.0063 µM in assay [2] (exemplary data, bDNA). The EC50 in assay [2] (setting [6]) is less than 0.3 µM; in assay [2] (setting [7]), 0.009 µM. The “Percent Survival” value in the assay with influenza virus was determined as 100%. Also, in the assay on influenza virus, the “Percent Weight Loss (Day 8)” value came out at 14%. The “WBP (Penh; Day 6)” value with influenza virus was determined as 2.03.

On to `CC(C)(C)[C@@H](CCP(=O)(O)O)Nc1nc(-c2c[nH]c3ncc(F)cc23)ncc1F` [Compound 69, (R)-(3-((5-fluoro-2-(5-fluoro-1H-pyrrolo[2,3-b]pyridin-3-yl)pyrimidin-4-yl)amino)-4,4-dimethylpentyl)phosphonic acid], for which the figures for the IC50 in assay [1] (setting [3]) and in assay [1] (setting [4]) were 0.3 to 3.3 µM and 2.31 µM, respectively. In addition, the EC99 in assay [2] (setting [5]) is greater than 3.3 µM; in assay [2] (exemplary data, bDNA) it was 8.4 µM. Also, the EC50 in assay [2] (setting [6]) is 0.3 to 3.3 µM; in assay [2] (setting [7]), 0.8 µM.

Consider `CC(C)(C)[C@@H](CC(O)CO)Nc1nc(-c2c[nH]c3ncc(F)cc23)ncc1F` (stereo partly drawn) [Compound 70, (4R)-4-((5-fluoro-2-(5-fluoro-1H-pyrrolo[2,3-b]pyridin-3-yl)pyrimidin-4-yl)amino)-5,5-dimethylhexane-1,2-diol], for which, in assay [1] (setting [3]), the IC50 was less than 0.3 µM. Further, the concentration for an effect of 99% (EC99) in assay [2] (setting [5]) was in the range of 0.3 to 3.3 µM. In addition, the EC50 in assay [2] (setting [6]) was less than 0.3 µM.

As to `CC(C)(C)[C@@H](CC(O)CO)Nc1nc(-c2c[nH]c3ncc(F)cc23)ncc1F` (stereo partly drawn) [Compound 71, (4R)-4-((5-fluoro-2-(5-fluoro-1H-pyrrolo[2,3-b]pyridin-3-yl)pyrimidin-4-yl)amino)-5,5-dimethylhexane-1,2-diol], the IC50 in assay [1] (setting [8]) is less than 0.3 µM. In assay [2] (setting [9]), the “bDNA EC99 (uM)” value is recorded as “A (EC99 (mean all)<0.3 μM)”. Besides, in assay [2] (setting [10]), the EC50 is less than 0.3 µM.

`CC(O)C[C@@H](Nc1nc(-c2c[nH]c3ncc(F)cc23)ncc1F)C(C)(C)C` (stereo partly drawn) [Compound 73, (4R)-4-((5-Fluoro-2-(5-fluoro-1H-pyrrolo[2,3-b]pyridin-3-yl)pyrimidin-4-yl)amino)-5,5-dimethylhexan-2-ol]: in assay [1] (setting [3]), the half-maximal inhibitory concentration (IC50) was greater than 3.3 µM. In addition, the EC50 in assay [2] (setting [6]) is 0.3 to 3.3 µM.

For `CC1(C(CC(=O)O)Nc2nc(-c3c[nH]c4ncc(F)cc34)ncc2F)CC1` (centres unmarked) [Compound 74], in assay [1] (setting [3]), the IC50 was in the range of 0.3 to 3.3 µM. The EC99 in assay [2] (setting [5]) fell in the range of 0.3 to 3.3 µM. Moreover, the EC50 in assay [2] (setting [6]) was in the range of 0.3 to 3.3 µM.

In the case of `CC1(C(CC(=O)O)Nc2nc(-c3c[nH]c4ncc(F)cc34)ncc2F)CCCCC1` (centres unmarked) [Compound 78, 3-(5-fluoro-2-(5-fluoro-1H-pyrrolo[2,3-b]pyridin-3-yl)pyrimidin-4-ylamino)-3-(1-methylcyclohexyl)propanoic acid], the IC50 in assay [1] (setting [3]) was less than 0.3 µM. Further, the EC99 in assay [2] (setting [5]) was 0.3 to 3.3 µM. The EC50 in assay [2] (setting [6]) is less than 0.3 µM.

On to `CCOC(=O)CC(Nc1nc(-c2c[nH]c3ncc(Cl)cc23)ncc1F)C1(C)CCCCC1` (centres unmarked) [Compound 82], for which, in assay [1] (setting [3]), the IC50 is greater than 3.3 µM. Besides, the EC99 in assay [2] (setting [5]) was greater than 3.3 µM. Further, the EC50 in assay [2] (setting [6]) was greater than 3.3 µM.

With `CC1([C@@H](CC(=O)O)Nc2nc(-c3c[nH]c4ncc(F)cc34)ncc2F)CCC1` [Compound 87, 3-((5-fluoro-2-(5-fluoro-1H-pyrrolo[2,3-b]pyridin-3-yl)pyrimidin-4-yl)amino)-3-(1-methylcyclobutyl)propanoic acid], the IC50 in assay [1] (setting [3]) is less than 0.3 µM. Besides, the EC99 in assay [2] (setting [5]) was less than 0.3 µM. Moreover, the EC50 in assay [2] (setting [6]) is less than 0.3 µM.

On to `CC1(C(CC(=O)O)Nc2nc(-c3c[nH]c4ncc(F)cc34)ncc2F)CCC1` (centres unmarked) [Compound 88, 3-((5-fluoro-2-(5-fluoro-1H-pyrrolo[2,3-b]pyridin-3-yl)pyrimidin-4-yl)amino)-3-(1-methylcyclobutyl)propanoic acid], for which the IC50 in assay [1] (setting [8]) is less than 0.3 µM. Besides, the “bDNA EC99 (uM)” value in assay [2] (setting [9]) is “B (0.3 μM≤EC99 (mean all)≤3.3 μM)”. For the same compound, in assay [2] (setting [10]), the EC50 was less than 0.3 µM.

Consider `CC(C)(C)[C@@H](CC(=O)O)Nc1nc(-c2c[nH]c3ncc(C#N)cc23)ncc1F` [Compound 89, (R)-3-((2-(5-cyano-1H-pyrrolo[2,3-b]pyridin-3-yl)-5-fluoropyrimidin-4-yl)amino)-4,4-dimethylpentanoic acid], for which the IC50 in assay [1] (setting [3]) was less than 0.3 µM. Further, the EC99 in assay [2] (setting [5]) is 0.3 to 3.3 µM. Moreover, in assay [2] (setting [6]), the EC50 was less than 0.3 µM.

Regarding `Cc1cnc2[nH]cc(-c3ncc(F)c(N[C@H](CC(=O)O)C(C)(C)C)n3)c2c1` [Compound 90, (R)-3-((5-fluoro-2-(5-methyl-1H-pyrrolo[2,3-b]pyridin-3-yl)pyrimidin-4-yl)amino)-4,4-dimethylpentanoic acid], the IC50 in assay [1] (setting [3]) was less than 0.3 µM. For the same compound, the EC99 in assay [2] (setting [5]) is 0.3 to 3.3 µM. The EC50 in assay [2] (setting [6]) was less than 0.3 µM.

With `CC1([C@@H](CC(=O)O)Nc2nc(-c3c[nH]c4ncc(F)cc34)ncc2F)CC1` [Compound 91, (R)-3-((5-fluoro-2-(5-fluoro-1H-pyrrolo[2,3-b]pyridin-3-yl)pyrimidin-4-yl)amino)-3-(1-methylcyclopropyl)propanoic acid], the IC50 in assay [1] (setting [3]) was less than 0.3 µM. For the same compound, the EC50 in assay [2] (setting [6]) was less than 0.3 µM. Further, the “bDNA EC99 (uM)” value in assay [2] (setting [9]) is “B (0.3 μM≤EC99 (mean all)≤3.3 μM)”.

For `CC1([C@@H](CC(=O)O)Nc2nc(-c3c[nH]c4ncc(F)cc34)ncc2F)CC1` [Compound 92], the IC50 in assay [1] (setting [8]) was in the range of 0.3 to 3.3 µM. In assay [2] (setting [9]), the “bDNA EC99 (uM)” value is listed as “C (EC99 (mean all)>3.3 μM)”. The EC50 in assay [2] (setting [10]) was 0.3 to 3.3 µM.

For the compound `COC(=O)C[C@@H](Nc1nc(-c2n[nH]c3ncc(Cl)cc23)ncc1F)C(C)(C)C` [Compound 96], the IC50 in assay [1] (setting [3]) was less than 0.3 µM. For the same compound, the EC99 in assay [2] (setting [5]) lay in the range of 0.3 to 3.3 µM. For the same compound, the EC50 in assay [2] (setting [6]) was less than 0.3 µM.

Regarding `CC(C)(C)[C@@H](CC(=O)O)Nc1nc(-c2n[nH]c3ncc(Cl)cc23)ncc1F` [Compound 97, (R)-3-((2-(5-chloro-1H-pyrazolo[3,4-b]pyridin-3-yl)-5-fluoropyrimidin-4-yl)amino)-4,4-dimethylpentanoic acid], in assay [1] (setting [3]), the IC50 was less than 0.3 µM. For the same compound, the EC99 in assay [2] (setting [5]) was less than 0.3 µM. Further, the EC50 in assay [2] (setting [6]) was less than 0.3 µM.

Consider `CNC(=O)[C@H](C)Nc1nc(-c2c[nH]c3ncc(Cl)cc23)ncc1F` [Compound C3, reference compound], for which the IC50 was greater than 3.3 µM in assay [1] (setting [11]) and greater than 20 µM in assay [1] (setting [12]). Further, the values for the EC50 in assay [2] (setting [13]) and in assay [2] (setting [14]) were greater than 3.3 µM and 3.38 µM, respectively. The “bDNA EC99 (uM), class” value in assay [2] (class symbol in brackets) is on record as “C (EC99 (mean all)>3.3 μM)”. The “bDNA EC99” value in assay [2] (setting [15]) was 9.37 µM.

For the compound `C[C@@H](CC(=O)O)Nc1nc(-c2c[nH]c3ncc(Cl)cc23)ncc1F` [Compound C4, reference compound], the IC50 in assay [1] (setting [11]) is 0.3 to 3.3 µM; in assay [1] (setting [12]), 2.33 µM. Moreover, the EC50 was greater than 3.3 µM in assay [2] (setting [13]) and 6.4 µM in assay [2] (setting [14]). The “bDNA EC99 (uM), class” value in assay [2] (class symbol in brackets) is on record as “C (EC99 (mean all)>3.3 μM)”. Further, the “bDNA EC99” value in assay [2] (setting [15]) is greater than 16.7 µM.
